{"source": "patent US9374973B2", "about": "“Grass endophytes” (GRASSLANZ TECHNOLOGY LTD, priority 2003, dated 2016)", "origin": "cited, not measured here", "key": {"[1]": {"tested_on": "grazing sheep, cattle, deer and horses"}, "[2]": {"tested_on": "black beetle (Heteronychus arator)", "conditions": "in vivo"}, "[3]": {"tested_on": "Argentine stem weevil (Listronotus bonariensis)", "conditions": "in vivo"}}, "data": [{"molecule": "CC(C)[C@H]1C(=O)N2CCC[C@H]2[C@]2(O)O[C@@](C)(NC(=O)[C@@H]3C=C4c5cccc6[nH]cc(c56)C[C@H]4N(C)C3)C(=O)N12", "note": "[Ergovaline]", "values": [{"measurement": "Concentration in ryegrass pastures likely to elicit hyperthermia and depressed prolactin responses", "setting": "[1]; bovine, in vivo", "result": "above 0.5 ppm"}, {"measurement": "Effect on black beetle", "setting": "[2]", "result": "deterrent"}]}, {"molecule": "CC(C)=C[C@H]1O[C@H]2[C@H]3O[C@@]34[C@H](CC[C@@]3(C)[C@@]4(O)CC[C@H]4Cc5c([nH]c6ccc7c(c56)C[C@@H]5[C@@H](C7=O)C(C)(C)OC5(C)C)[C@@]43C)O[C@@H]2C(C)(C)O1", "note": "[Lolitrem B]", "values": [{"measurement": "Herbage concentration that may result in clinical symptoms of ryegrass staggers", "setting": "[1]; grazing sheep, cattle, deer and horses", "result": "> 2 ppm of herbage dry matter"}]}, {"molecule": "Cn1c(CCCN=C(N)N)cn2cccc2c1=O", "note": "[Peramine]", "values": [{"measurement": "Effect on Argentine stem weevil", "setting": "[3]", "result": "feeding deterrent"}]}, {"molecule": "lolitrem", "values": [{"measurement": "Effect on Argentine stem weevil", "setting": "[3]", "result": "toxic"}]}]}
